These results are taken from PubChem BioAssay AID250 (DTP/NCI, 2004).

“And” between values parts separate entries of the source, which are not always exact repeats. Equal entries are not always repeated. Inconclusive results and toxic doses are left out.

This assay relates to BDF1 mice, L1210 leukemia sc, survival T/C. The assay is described as follows: NCI In Vivo Anticancer Drug Screen. Data for tumor model L1210 Leukemia (subcutaneous) in B6D2F1 (BDF1) mice. The conditions noted are these: higher = longer survival. Put shortly:
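Mice carrying transplanted tumors received test compounds, and survival or tumor size was measured. Values are the treated-group measurement (T) divided by that of the vehicle-treated control group (C).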

Where [1] appears, read: endpoint: median survival time, dose: 23.0 mg/kg/injection, schedule: Q01DX Z (sc), vehicle: other.
[2] abbreviates: endpoint: median survival time, dose: 39.0 mg/kg/injection, schedule: Q01DX Z (sc), vehicle: other.
The mark [3] stands for this setting: endpoint: median survival time, dose: 65.0 mg/kg/injection, schedule: Q01DX Z (sc), vehicle: other.
Setting [4] is: endpoint: median survival time, dose: 108.0 mg/kg/injection, schedule: Q01DX Z (sc), vehicle: other.
Setting [5] is: endpoint: median survival time, dose: 180.0 mg/kg/injection, schedule: Q01DX Z (sc), vehicle: other.
[6] abbreviates: endpoint: median survival time, dose: 108.0 mg/kg/injection, schedule: Q01DX Z (sc), vehicle: methylcellulose (MC).
Setting [7] is: endpoint: median survival time, dose: 180.0 mg/kg/injection, schedule: Q01DX Z (sc), vehicle: methylcellulose (MC).
Where [8] appears, read: endpoint: median survival time, dose: 300.0 mg/kg/injection, schedule: Q01DX Z (sc), vehicle: methylcellulose (MC).

Take `O=c1[nH]cc(S)c(=O)[nH]1`: the T/C runs as follows: under setting [1], 100 % of control; under setting [2], 100 % of control; under setting [3], 100 % of control; under setting [4], 110 % of control; under setting [5], 110 % of control; (endpoint: median survival time, dose: 300.0 mg/kg/injection, schedule: Q01DX Z (sc), vehicle: other) 100 % of control.

Take `CC(C)CSc1nc(N)nc2nc[nH]c12`: the T/C reads like this: (endpoint: median survival time, dose: 14.0 mg/kg/injection, schedule: Q01DX Z (sc), vehicle: methylcellulose (MC)) 100 % of control; (endpoint: median survival time, dose: 23.0 mg/kg/injection, schedule: Q01DX Z (sc), vehicle: methylcellulose (MC)) 105 % of control; (endpoint: median survival time, dose: 39.0 mg/kg/injection, schedule: Q01DX Z (sc), vehicle: methylcellulose (MC)) 111 % of control; (endpoint: median survival time, dose: 65.0 mg/kg/injection, schedule: Q01DX Z (sc), vehicle: methylcellulose (MC)) 111 % of control; under setting [6], 111 % of control; under setting [7], 116 % of control. In addition, the T/C under setting [8] is 111 % of control.

With `CC(CNC(=O)CCOS(C)(=O)=O)NC(=O)CCOS(C)(=O)=O` (stereo unspecified), the T/C runs as follows: under setting [6], 105 % of control; (endpoint: median survival time, dose: 180.0 mg/kg/injection, schedule: Q01DX Z (sc), vehicle: carboxymethylcellulose (CMC)) 175 % of control; under setting [7], 115 % of control; (endpoint: median survival time, dose: 300.0 mg/kg/injection, schedule: Q01DX Z (sc), vehicle: carboxymethylcellulose (CMC)) 150 % of control; under setting [8], 120 % of control; (endpoint: median survival time, dose: 500.0 mg/kg/injection, schedule: Q01DX Z (sc), vehicle: methylcellulose (MC)) 120 % of control. For the same compound, the T/C is 110 % of control (endpoint: median survival time, dose: 833.0 mg/kg/injection, schedule: Q01DX Z (sc), vehicle: carboxymethylcellulose (CMC)) and 110 % of control (endpoint: median survival time, dose: 833.0 mg/kg/injection, schedule: Q01DX Z (sc), vehicle: methylcellulose (MC)).

Consider `N[C@H](C(=O)O)[C@@H]1CC(Cl)=NO1`, for which the T/C is 113 % of control (endpoint: median survival time, dose: 1.0 mg/kg/injection, schedule: Q01DX009 (sc), vehicle: saline); 150 % of control (endpoint: median survival time, dose: 2.0 mg/kg/injection, schedule: Q01DX009 (sc), vehicle: saline); 159 % of control (endpoint: median survival time, dose: 4.0 mg/kg/injection, schedule: Q01DX009 (sc), vehicle: saline); 151 % of control and 172 % of control (endpoint: median survival time, dose: 8.0 mg/kg/injection, schedule: Q01DX009 (sc), vehicle: saline); 162 % of control (endpoint: median survival time, dose: 16.0 mg/kg/injection, schedule: Q01DX009 (sc), vehicle: saline); 159 % of control (endpoint: median survival time, dose: 32.0 mg/kg/injection, schedule: Q01DX009 (sc), vehicle: saline). Besides, the T/C (endpoint: median survival time, dose: 64.0 mg/kg/injection, schedule: Q01DX009 (sc), vehicle: saline) is 154 % of control.

On to `S=c1nc[nH]c2c1ncn2C1CCCO1` (stereo unspecified), for which the T/C by setting is: under setting [6], 120 % of control; under setting [7], 120 % of control; under setting [8], 100 % of control.

For `O[C@H](CN1CC1)[C@@H](O)CN1CC1`, the T/C runs as follows: (endpoint: median survival time, dose: 0.14 mg/kg/injection, schedule: Q01DX Z (sc), vehicle: saline) 100 % of control; (endpoint: median survival time, dose: 0.22 mg/kg/injection, schedule: Q01DX Z (sc), vehicle: saline) 111 % of control; (endpoint: median survival time, dose: 0.23 mg/kg/injection, schedule: Q01DX Z (sc), vehicle: saline) 111 % of control; (endpoint: median survival time, dose: 0.6 mg/kg/injection, schedule: Q01DX Z (sc), vehicle: saline) 177 % of control; (endpoint: median survival time, dose: 0.65 mg/kg/injection, schedule: Q01DX Z (sc), vehicle: saline) 183 % of control; (endpoint: median survival time, dose: 1.0 mg/kg/injection, schedule: Q01DX Z (sc), vehicle: saline) 172 % of control. In addition, the T/C was 155 % of control (endpoint: median survival time, dose: 1.08 mg/kg/injection, schedule: Q01DX Z (sc), vehicle: saline) and 122 % of control (endpoint: median survival time, dose: 2.8 mg/kg/injection, schedule: Q01DX Z (sc), vehicle: saline).

Regarding `CN(Cc1cnc2nc(N)nc(N)c2n1)c1c(Cl)cc(C(=O)NC(CCC(=O)O)C(=O)O)cc1Br` (stereo unspecified), the T/C is, setting by setting: (endpoint: median survival time, dose: 1.8 mg/kg/injection, schedule: Q## X Z (sc), vehicle: other) 266 % of control; (endpoint: median survival time, dose: 3.0 mg/kg/injection, schedule: Q## X Z (sc), vehicle: other) 288 % of control; (endpoint: median survival time, dose: 4.9 mg/kg/injection, schedule: Q01DX Z (ip), vehicle: other) 111 % of control; (endpoint: median survival time, dose: 5.0 mg/kg/injection, schedule: Q01DX Z (sc), vehicle: other) 100 % of control; (endpoint: median survival time, dose: 5.0 mg/kg/injection, schedule: Q## X Z (sc), vehicle: other) 422 % of control; (endpoint: median survival time, dose: 8.3 mg/kg/injection, schedule: Q01DX Z (ip), vehicle: other) 122 % of control. In addition, the T/C reads like this: (endpoint: median survival time, dose: 8.4 mg/kg/injection, schedule: Q01DX Z (sc), vehicle: other) 111 % of control; (endpoint: median survival time, dose: 8.4 mg/kg/injection, schedule: Q## X Z (sc), vehicle: other) 100 % of control; (endpoint: median survival time, dose: 14.0 mg/kg/injection, schedule: Q01DX Z (sc), vehicle: other) 244 % of control; (endpoint: median survival time, dose: 14.1 mg/kg/injection, schedule: Q01DX Z (ip), vehicle: other) 122 % of control; under setting [1], 283 % of control and 300 % of control; (endpoint: median survival time, dose: 23.4 mg/kg/injection, schedule: Q01DX Z (ip), vehicle: other) 283 % of control. Moreover, the T/C is 305 % of control (endpoint: median survival time, dose: 38.9 mg/kg/injection, schedule: Q01DX Z (ip), vehicle: other); 322 % of control and 338 % of control under setting [2]; 104 % of control (endpoint: median survival time, dose: 39.0 mg/kg/injection, schedule: Q## X Z (sc), vehicle: other); 300 % of control (endpoint: median survival time, dose: 64.8 mg/kg/injection, schedule: Q01DX Z (ip), vehicle: other); 316 % of control and 333 % of control under setting [3]; 104 % of control (endpoint: median survival time, dose: 65.0 mg/kg/injection, schedule: Q## X Z (sc), vehicle: other). Besides, the T/C reads like this: (endpoint: median survival time, dose: 107.0 mg/kg/injection, schedule: Q01DX Z (ip), vehicle: other) 244 % of control; under setting [4], 211 % of control and 233 % of control; (endpoint: median survival time, dose: 108.0 mg/kg/injection, schedule: Q## X Z (sc), vehicle: other) 104 % of control; (endpoint: median survival time, dose: 179.0 mg/kg/injection, schedule: Q01DX Z (ip), vehicle: other) 177 % of control; under setting [5], 166 % of control; (endpoint: median survival time, dose: 180.0 mg/kg/injection, schedule: Q## X Z (sc), vehicle: other) 109 % of control. Also, the T/C was 114 % of control (endpoint: median survival time, dose: 300.0 mg/kg/injection, schedule: Q## X Z (sc), vehicle: other) and 114 % of control (endpoint: median survival time, dose: 500.0 mg/kg/injection, schedule: Q## X Z (sc), vehicle: other).

As for `Nc1ccn(C2CC(O)C(CO)O2)c(=O)n1` (stereo unspecified), the T/C (endpoint: median survival time, dose: 37.5 mg/kg/injection, schedule: Q06HX018 (sc), vehicle: water) is 108 % of control; the T/C (endpoint: median survival time, dose: 37.5 mg/kg/injection, schedule: Q## X018 (sc), vehicle: water) is 111 % of control; the T/C (endpoint: median survival time, dose: 75.0 mg/kg/injection, schedule: Q03HX008 (sc), vehicle: water) was 90 % of control and 93 % of control; the T/C (endpoint: median survival time, dose: 75.0 mg/kg/injection, schedule: Q06HX018 (sc), vehicle: water) is 102 % of control; the T/C (endpoint: median survival time, dose: 75.0 mg/kg/injection, schedule: Q## X018 (sc), vehicle: water) is 100 % of control; the T/C (endpoint: median survival time, dose: 150.0 mg/kg/injection, schedule: Q03HX008 (sc), vehicle: water) is 100 % of control and 102 % of control. The T/C (endpoint: median survival time, dose: 150.0 mg/kg/injection, schedule: Q06HX018 (sc), vehicle: water) is 98 % of control; the T/C (endpoint: median survival time, dose: 150.0 mg/kg/injection, schedule: Q## X018 (sc), vehicle: water) was 100 % of control; the T/C (endpoint: median survival time, dose: 300.0 mg/kg/injection, schedule: Q06HX018 (sc), vehicle: water) is 106 % of control; the T/C (endpoint: median survival time, dose: 300.0 mg/kg/injection, schedule: Q## X018 (sc), vehicle: water) is 105 % of control.

`Cc1cccc2c(Nc3ccc(NS(C)(=O)=O)cc3)c3ccccc3nc12`: the T/C (endpoint: mean survival time, dose: 10.0 mg/kg/injection, schedule: Q01DX009 (ip), vehicle: saline) is 103 % of control; the T/C (endpoint: mean survival time, dose: 20.0 mg/kg/injection, schedule: Q01DX009 (ip), vehicle: saline) was 107 % of control; the T/C (endpoint: mean survival time, dose: 40.0 mg/kg/injection, schedule: Q01DX009 (ip), vehicle: saline) was 106 % of control; the T/C (endpoint: mean survival time, dose: 80.0 mg/kg/injection, schedule: Q01DX009 (ip), vehicle: saline) was 100 % of control; the T/C (endpoint: median survival time, dose: 10.0 mg/kg/injection, schedule: Q01DX009 (ip), vehicle: saline with Tween-80) is 106 % of control; the T/C (endpoint: median survival time, dose: 20.0 mg/kg/injection, schedule: Q01DX009 (ip), vehicle: saline with Tween-80) was 112 % of control.
